Patent US20080318778A1, “Agriculture Composition Method Comprising Nitric Oxide Generating Agent” (University of Sheffield, priority 2004, published 2008)

What was measured:
bean cv. Orfeo INIA = assay: Weekly spraying of field-grown bean plants, effect on yield (pods/plant, seed/plant); format: in vivo, Phaseolus vulgaris; settings: sprayed every week for two months until pod setting, NaNO2 at 200 μM, AsA at 100 μM, mixture AsA/NaNO2 at 100 μM/200 μM, control sprayed with water
Description: Plants of bean cv Orfeo INIA were grown in rows 80 cm apart and at a density of 10 plants/m, during the 2001 Southern Spring in the Experimental Station of the Univ. of Chile, Santiago. Plants were irrigated twice a week with abundant water in order to avoid water stress at any developmental stage. Phytosanitary, weed and fertilizer conditions of the plant was controlled as recommended for commercial crop.
One month old plants were sprayed every week for a two month period, until pod setting with: NaNO2 at 200 μM; AsA at 100 μM and a mixture of AsA/NaNO2 at […]. Control plants were sprayed with water.

grapevine cv Sultana = assay: Spraying of dormant grapevine cuttings, onset of bud burst in growth chamber; format: in vivo, Vitis vinifera L; settings: H2CN2 2.5% spray
Description: Cuttings of grapevine cv Sultana with three dormant buds each were collected from a vineyard located at Antumapu Experimental Station, University of Chile, by the end of May 2003 (Autumn South Hemisphere). After fungicide treatment, they were kept wrapped up with plastic for one week in a dark and cold chamber at 7° C. day/night. […] The number of buds burst was registered every day after the first bud was detected starting to growth. This moment was considered as the initiation of the bud burst.

Row | Compound | yield (Number of pods/plant and Number of seed/plant) (bean cv. Orfeo INIA) | strength of effect on bud burst, AsA/NaNO2 compared with cyanamide (grapevine cv Sultana)
1 | O=C1O[C@H]([C@@H](O)CO)C(O)=C1O [AsA, ascorbic acid] | neither AsA or NaNO2 alone had any effect on yield | –
2 | O=NO [NaNO2, sodium nitrite] | neither AsA or NaNO2 alone had any effect on yield | –
3 | N#CN [cyanamide] | – | The effect was not as strong as with cyanamide
